# Experimental data taken from PMC7606587 (Nuclear medicine and biology, 2020).
# Read-outs that look alike come from different tables or passages of the source.
# Test system: C4–2B prostate cancer xenografts
# Type: in vivo, athymic (BALB/c nu/nu) mice
# Conditions: for blood clearance (in words): 1 and 4 h pi
# [1] = C4–2B xenograft, 4 h pi, tail vein injection
# [2] = C4–2B xenograft, time point not stated at the place (study at 1, 4, 24 h pi)
substance,measurement,setting,value
3-B10H9-dioxa-5-dPEG12CO2H-Ph-Lys-Ac [[^125I]9a],blood clearance (in words),,rapid blood clearance
same,concentration in all the tissues except for the intestine,1 h pi,lower than 2 % ID/g
same,intestine concentration,1 h pi,12 %ID/g
same,tumor uptake / tumor targeting (in words),C4–2B xenograft,essentially no tumor uptake
3-B10H9-dioxa-5-LuG-dPEG4-Ph-Lys-Ac [[^131I]16b],tumor concentration relative to [131I]16a,C4–2B xenograft,~ 4 ×
same,tumor concentration,[1],~ 15 %ID/g
same,tumor concentration,[2],14–15 %ID/g
3-B10H9-dioxa-5-LuG-dPEG12-Ph-Lys-Ac [[^131I]16a],blood clearance (in words),,rapid blood clearance
same,highest spleen concentration,1 h pi,9 %ID/g
same,tumor concentration relative to blood concentration,1 h pi,2.3 ×
same,kidney concentration,4 h pi,~ 94 %ID/g
same,tumor concentration relative to blood concentration,4 h pi,4.7 ×
same,kidney concentration,"4 h pi, listed as 16a",94 %ID/g
same,tumor concentration,"C4–2B xenograft, 1 h pi",~ 4 % ID/g
same,tumor concentration,[1],~ 4 %ID/g
same,tumor concentration,"C4–2B xenograft, at 1 and 4 h pi",< 5 %ID/g
same,tumor concentration,[2],~ 4 %ID/g
